Results on 18 molecules are retold here after patent US20090137572A1, “2-substituted-4-heteroaryl-pyrimidines useful for the treatment of proliferative disorders” (priority 2004, published 2009).

Series [1] has as its target CDK2-cycline E (Homo sapiens, UniProt P24941). Kind of series: Kinase assay (radioactive phosphate incorporation), CDK2-cyclin E. Format: biochemical. The following applies: read-out: Kinase Inhibition pIC50 CDK2-cycline E (converted). In short, it runs like this: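 Inhibition measured as 32P transfer from ATP (100 μM, 15 mM MgCl2) onto peptide substrates at 30° C. Each assay used 2-4 μg active recombinant enzyme in pH 7.4 buffer. Reactions stopped on ice, filtered, acid-washed and counted; compounds diluted into 10% DMSO in assay buffer.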

For series [2], the target named is CDK7/cyclin H (Homo sapiens, UniProt P50613). Briefly: CDK 7 assay (CTD peptide substrate). Format: biochemical. The following applies: read-out: Kinase Inhibition pIC50 CDK7-cyclin H (converted). The protocol:
Kinase assays. The compounds of the invention above were investigated for their ability to inhibit the enzymatic activity of various protein kinases (Table 2). This was achieved by measurement of incorporation of radioactive phosphate from ATP into appropriate polypeptide substrates. Recombinant protein kinases and kinase complexes were produced or obtained commercially. Assays were performed using 96-well plates and appropriate assay buffers (typically 25 mM β-glycerophosphate, 20 mM MOPS, 5 mM EGTA, 1 mM DTT, 1 mM […], pH 7.4), into which were added 2-4 μg of active enzyme with appropriate substrates. The reactions were initiated by addition of Mg/ATP mix (15 mM MgCl2+100 μM ATP with 30-50 kBq per well of [γ-^32P]-ATP) and mixtures incubated as required at 30° C. Reactions were stopped on ice, followed by filtration through p81 filterplates or GF/C filterplates (Whatman Polyfiltronics, Kent, UK). After washing 3 times with 75 mM aq orthophosphoric acid, plates were dried, scintillant added and incorporated radioactivity measured in a scintillation counter (TopCount, Packard Instruments, Pangbourne, Berks, UK). Compounds for kinase assay were made up as 10 mM stocks in DMSO and diluted into 10% DMSO in assay buffer.
CDK 7 and 9 assays. CTD peptide substrate (biotinyl-Abx-(Tyr-Ser-Pro-Thr-Ser-Pro-Ser)4-NH2; 1-2 mg/mL) and recombinant human CDK7/cyclin H, CDK9/cyclin T1, or CDK9/cyclin K (0.5-2 μg) were incubated for 45 min at 30° C. in the presence of varying amounts of test compound in 20 mM MOPS pH 7.2, 25 mM β-glycerophosphate, 5 mM EGTA, 1 mM DTT, 1 mM sodium vanadate, 15 mM MgCl2, and 100 μM ATP (containing a trace amount of ^32PγATP) in a total volume of 25 μL in a 96-well microtiter plate. The reaction was stopped by placing the plate on ice for 2 min. Avidin (50 μg) was added to each well, and the plate was incubated at room temp for 30 min. The samples were transferred to a 96-well P81 filter plate, and washed (4×200 μL per well) with 75 mM phosphoric acid. Microscint 40 scintillation liquid (50 μL) was added to each well, and the amount of ^32P incorporation for each sample was measured using a Packard Topcount microplate scintillation counter.

The target of series [3] is CDK9/cyclin T1 (Homo sapiens, UniProt P50750). Kind of series: CDK 9 assay (CTD peptide substrate). Format: biochemical. As to conditions: read-out: Kinase Inhibition pIC50 CDK9-cyclin T1 (converted). In short, it runs like this: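 32P transfer from 100 μM ATP (trace [γ-32P]ATP) to a biotinyl CTD (YSPTSPS)4 peptide was measured after 45 min at 30 °C in pH 7.2 MOPS buffer, 15 mM MgCl2, using recombinant human CDK7/cyclin H or CDK9/cyclin T1. Signal read by filter binding and scintillation counting.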

Series [4] deals with T1, Aurora A kinase (Homo sapiens, UniProt O14965).
T1 construct: purchased
T1 sequence (O14965 1-403): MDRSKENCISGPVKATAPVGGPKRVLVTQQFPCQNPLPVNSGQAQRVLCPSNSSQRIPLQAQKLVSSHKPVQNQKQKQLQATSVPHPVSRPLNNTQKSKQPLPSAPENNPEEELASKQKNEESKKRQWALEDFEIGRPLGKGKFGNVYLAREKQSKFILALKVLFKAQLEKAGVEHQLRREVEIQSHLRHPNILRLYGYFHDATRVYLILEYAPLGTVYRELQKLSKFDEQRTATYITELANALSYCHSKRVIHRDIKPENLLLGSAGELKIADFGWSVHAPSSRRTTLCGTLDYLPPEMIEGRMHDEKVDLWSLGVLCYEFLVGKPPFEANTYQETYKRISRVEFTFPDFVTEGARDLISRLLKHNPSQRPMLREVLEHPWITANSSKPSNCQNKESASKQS
Briefly: Aurora-A (human) kinase assay (Kemptide substrate). Format: biochemical. The following applies: pIC50 is -log(IC50, M); 15 μM ATP; read-out: Kinase Inhibition pIC50 Aurora A kinase (converted). In a few lines:
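Kemptide (LRRASLG, 200 μM) phosphorylation by 5-10 ng commercial aurora-A measured as [γ-33P] incorporation at 15 μM ATP with 10 mM Mg acetate, pH 7.0 MOPS buffer. Reaction ran 40 min at room temperature; acid-stopped, captured on P81 filters, scintillation read.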

Sequence of CDK9/cyclin T1 (P50750 whole entry): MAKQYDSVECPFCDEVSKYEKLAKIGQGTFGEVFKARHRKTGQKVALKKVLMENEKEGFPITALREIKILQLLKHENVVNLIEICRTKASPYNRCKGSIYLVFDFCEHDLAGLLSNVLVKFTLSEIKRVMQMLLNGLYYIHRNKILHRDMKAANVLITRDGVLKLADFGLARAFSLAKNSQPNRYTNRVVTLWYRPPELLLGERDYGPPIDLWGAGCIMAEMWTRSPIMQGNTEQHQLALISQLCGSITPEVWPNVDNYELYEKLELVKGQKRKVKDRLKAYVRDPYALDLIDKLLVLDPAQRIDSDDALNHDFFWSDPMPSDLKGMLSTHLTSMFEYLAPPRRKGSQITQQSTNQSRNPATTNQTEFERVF
Sequence of CDK9/cyclin T1 (O60563 whole entry partner): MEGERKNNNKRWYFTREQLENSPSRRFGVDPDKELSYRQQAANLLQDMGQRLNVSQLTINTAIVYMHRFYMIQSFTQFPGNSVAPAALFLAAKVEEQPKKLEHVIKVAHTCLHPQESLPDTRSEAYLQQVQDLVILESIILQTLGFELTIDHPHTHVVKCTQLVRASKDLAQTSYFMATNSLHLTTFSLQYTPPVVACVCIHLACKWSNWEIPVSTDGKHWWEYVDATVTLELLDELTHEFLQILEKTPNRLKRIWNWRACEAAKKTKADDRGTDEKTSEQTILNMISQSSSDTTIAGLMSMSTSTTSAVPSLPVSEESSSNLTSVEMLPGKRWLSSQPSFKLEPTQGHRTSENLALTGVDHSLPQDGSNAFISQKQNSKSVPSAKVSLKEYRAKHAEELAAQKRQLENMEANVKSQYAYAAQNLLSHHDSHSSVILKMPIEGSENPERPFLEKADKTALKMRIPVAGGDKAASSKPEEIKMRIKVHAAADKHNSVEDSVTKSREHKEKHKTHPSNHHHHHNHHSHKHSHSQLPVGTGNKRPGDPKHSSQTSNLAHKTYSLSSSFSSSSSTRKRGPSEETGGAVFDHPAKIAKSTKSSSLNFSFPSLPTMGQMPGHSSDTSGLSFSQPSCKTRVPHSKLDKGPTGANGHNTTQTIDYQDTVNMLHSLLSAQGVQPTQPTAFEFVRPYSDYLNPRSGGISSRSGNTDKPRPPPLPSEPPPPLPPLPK
Sequence of CDK7/cyclin H (P50613 whole entry): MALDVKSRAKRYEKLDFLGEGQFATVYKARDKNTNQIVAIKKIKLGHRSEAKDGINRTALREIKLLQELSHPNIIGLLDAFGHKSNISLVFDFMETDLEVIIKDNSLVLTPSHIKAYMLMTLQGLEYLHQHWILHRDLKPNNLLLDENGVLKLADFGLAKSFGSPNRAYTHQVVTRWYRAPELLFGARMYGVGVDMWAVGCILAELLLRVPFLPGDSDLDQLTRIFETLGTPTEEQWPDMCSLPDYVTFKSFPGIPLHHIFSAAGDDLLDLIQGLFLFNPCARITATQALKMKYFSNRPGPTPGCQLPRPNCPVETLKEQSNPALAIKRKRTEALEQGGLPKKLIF
Sequence of CDK7/cyclin H (P51946 whole entry partner): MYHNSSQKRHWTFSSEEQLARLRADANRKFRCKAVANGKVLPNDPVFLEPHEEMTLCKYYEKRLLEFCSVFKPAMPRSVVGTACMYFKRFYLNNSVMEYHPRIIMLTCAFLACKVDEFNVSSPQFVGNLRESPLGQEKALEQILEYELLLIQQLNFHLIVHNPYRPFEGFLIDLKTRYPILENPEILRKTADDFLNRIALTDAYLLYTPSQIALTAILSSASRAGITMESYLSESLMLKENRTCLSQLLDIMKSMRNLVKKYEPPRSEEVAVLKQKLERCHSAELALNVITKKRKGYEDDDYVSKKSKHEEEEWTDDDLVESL

Regarding `CC(=O)N1CCN(c2ccc(Nc3nccc(-c4sc(-c5cccs5)nc4C)n3)cc2)CC1` [Compound 131, 1-(4-{4-[4-(4-Methyl-2-thiophen-2-yl-thiazol-5-yl)-pyrimidin-2-ylamino]-phenyl}-piperazin-1-yl)-ethanone], the melting point (in general, the temperature of the solid-liquid transition) lay within 134 to 136 °C. Further, in series [1], the IC50 was 2510 nM. The IC50 in series [2] is 1580 nM. In series [3], the IC50 was 2510 nM. Also, the IC50 in series [4] is 251 nM.
Turning to `Cc1nc(C)c(-c2ccnc(Nc3ccc(N4CCSCC4)cc3)n2)s1` [Compound 202, [4-(2,4-Dimethyl-thiazol-5-yl)-pyrimidin-2-yl]-(4-thiomorpholin-4-yl-phenyl)-amine], the melting point lay in the range of 173 to 174 °C. Further, the IC50 in series [1] is 5010 nM. Moreover, the IC50 in series [4] is 158 nM.
The corresponding values for `Cc1cc(Nc2nccc(-c3sc(N)nc3C)n2)ccc1N1CCCCC1` [Compound 206, [4-(2-Amino-4-methyl-thiazol-5-yl)-pyrimidin-2-yl]-(3-methyl-4-piperidin-1-yl-phenyl)-amine] are 221 to 223 °C, 1260 nM and 158 nM.
As for `CCNc1nc(C)c(-c2ccnc(Nc3ccc(N4CCOCC4)c(C)c3)n2)s1` [Compound 219, [4-(2-Ethylamino-4-methyl-thiazol-5-yl)-pyrimidin-2-yl]-(3-methyl-4-morpholin-4-yl-phenyl)-amine], the melting point was in the range of 213 to 214 °C. Further, the IC50 in series [1] is 1000 nM. The IC50 in series [3] was 3160 nM. Also, the IC50 in series [4] is 63.1 nM.
`Cc1nc(NCCc2ccccc2)sc1-c1ccnc(Nc2ccc(N3CCOCC3)cc2)n1` [Compound 158, [4-(4-Methyl-2-phenethylamino-thiazol-5-yl)-pyrimidin-2-yl]-(4-morpholin-4-yl-phenyl)-amine]: the melting point was in the range of 226 to 228 °C. Further, the IC50 in series [1] is 1000 nM. In series [4], the IC50 is 200 nM.
Regarding `CCNc1nc(C)c(-c2ccnc(Nc3ccc(N4CCOCC4)c(OC)c3)n2)s1` [Compound 157, [4-(2-Ethylamino-4-methyl-thiazol-5-yl)-pyrimidin-2-yl]-(3-methoxy-4-morpholin-4-yl-phenyl)-amine], the melting point lay within 224 to 226 °C. Further, in series [1], the IC50 is 251 nM. In series [4], the IC50 is 25.1 nM.
In turn, `CC(=O)NCc1ccc(Nc2nccc(-c3sc(-c4cccnc4)nc3C)n2)cc1` [Compound 103, N-{4-[4-(4-Methyl-2-pyridin-3-yl-thiazol-5-yl)-pyrimidin-2-ylamino]-benzyl}-acetamide] yielded a melting point of 199 to 201 °C. Besides, in series [1], the IC50 was 2510 nM. Further, the IC50 in series [2] is 2510 nM. The IC50 in series [3] was 5010 nM.
Consider `Cc1nc(N)sc1-c1ccnc(Nc2ccc(N3CCSCC3)cc2)n1` [Compound 201, [4-(2-Amino-4-methyl-thiazol-5-yl)-pyrimidin-2-yl]-(4-thiomorpholin-4-yl-phenyl)-amine], for which the melting point lay in the range of 180 to 182 °C. Further, the IC50 in series [1] was 1580 nM. The IC50 in series [3] is 1580 nM. Further, in series [4], the IC50 is 63.1 nM.
In turn, `Cc1nc(N)sc1-c1ccnc(Nc2ccc3c(c2)OCO3)n1` [Compound 179, [4-(2-Amino-4-methyl-thiazol-5-yl)-pyrimidin-2-yl]-benzo[1,3]dioxol-5-yl-amine] came in with a melting point of 211 to 213 °C. The IC50 in series [1] was 100 nM. The IC50 in series [4] was 79.4 nM.
`Cc1nc(C)c(-c2ccnc(Nc3ccc(N4CCOCC4)c(C)c3)n2)s1` [Compound 220, [4-(2,4-Dimethyl-thiazol-5-yl)-pyrimidin-2-yl]-(3-methyl-4-morpholin-4-yl-phenyl)-amine] had a melting point of 164 to 166 °C. The IC50 in series [1] was 1260 nM. Also, in series [3], the IC50 is 6310 nM. In series [4], the IC50 was 39.8 nM.
Taken in the same sequence, the figures for `CCNc1nc(C)c(-c2ccnc(Nc3ccc(N4CCSCC4)cc3)n2)s1` [Compound 203, [4-(2-Ethylamino-4-methyl-thiazol-5-yl)-pyrimidin-2-yl]-(4-thiomorpholin-4-yl-phenyl)-amine] were 207 to 209 °C, 2000 nM, 3160 nM and 126 nM.
The molecule `CC(=O)NCc1cccc(Nc2nccc(-c3sc(-c4cccs4)nc3C)n2)c1` [Compound 130, N-{3-[4-(4-Methyl-2-thiophen-2-yl-thiazol-5-yl)-pyrimidin-2-ylamino]-benzyl}-acetamide] returned a melting point of 223 to 225 °C. Further, in series [1], the IC50 is 794 nM. Also, the IC50 in series [4] is 158 nM.
`Cc1nc(-c2cccnc2)sc1-c1ccnc(Nc2ccc(N3CCSCC3)cc2)n1` [Compound 204, [4-(4-Methyl-2-pyridin-3-yl-thiazol-5-yl)-pyrimidin-2-yl]-(4-thiomorpholin-4-yl-phenyl)-amine]: the melting point fell in the range of 191 to 193 °C. Moreover, the IC50 in series [4] was 501 nM.
`Cc1nc(N(C)c2cc(Cl)cc(Cl)c2)sc1-c1ccnc(Nc2ccc(N3CCOCC3)cc2)n1` [Compound 123, (4-{2-[(3,5-Dichloro-phenyl)-methyl-amino]-4-methyl-thiazol-5-yl}-pyrimidin-2-yl)-(4-morpholin-4-yl-phenyl)-amine] gave a melting point of 216 to 218 °C. Besides, the IC50 in series [4] was 50.1 nM.
For `Cc1nc(C)c(-c2ccnc(Nc3cccc(CN)c3)n2)s1` [Compound 90, (3-Aminomethyl-phenyl)-[4-(2,4-dimethyl-thiazol-5-yl)-pyrimidin-2-yl]-amine], the melting point was in the range of 183 to 184 °C. The IC50 in series [1] was 398 nM.
`Cc1cc(Nc2nccc(-c3sc(N)nc3C)n2)ccc1N1CCOCC1` [Compound 218, [4-(2-Amino-4-methyl-thiazol-5-yl)-pyrimidin-2-yl]-(3-methyl-4-morpholin-4-yl-phenyl)-amine] registered a melting point of 256 to 257 °C. For the same molecule, the IC50 in series [1] was 1260 nM. For the same molecule, in series [3], the IC50 is 1580 nM. For the same molecule, in series [4], the IC50 is 63.1 nM.
Regarding `CCNc1nc(C)c(-c2ccnc(Nc3ccc4c(c3)OCO4)n2)s1` [Compound 178, Benzo[1,3]dioxol-5-yl-[4-(2-ethylamino-4-methyl-thiazol-5-yl)-pyrimidin-2-yl]-amine], the melting point was in the range of 194 to 195 °C. In addition, in series [1], the IC50 was 200 nM. Besides, the IC50 in series [4] is 158 nM.
Take `Cc1cc(Nc2nccc(-c3sc(-c4cccnc4)nc3C)n2)ccc1N1CCCCC1` [Compound 208, (3-Methyl-4-piperidin-1-yl-phenyl)-[4-(4-methyl-2-pyridin-3-yl-thiazol-5-yl)-pyrimidin-2-yl]-amine]: the melting point lay within 200 to 201 °C. Besides, the IC50 in series [4] is 1000 nM.
